Key:
[1] = system: H460 cells; assay: Annexin V staining, H460 cells; type: cell-based, human; details: 1 and 10 μM, 72 hours
Procedure: […] Cells were stained with Annexin-V-PerCP conjugates (eBioscience, Waltham, MA, USA) for 15 minutes on ice before washing out residual stain and resuspending in 300 μL of binding buffer. 10,000 events were collected per sample. Data was acquired with a CytoFLEX S flow cytometer (Beckman Coulter, Brea, CA), and analyzed using the CytExpert software (Beckman Coulter).

[2] = system: H460 cells; assay: Cell cycle analysis, H460 cells; type: cell-based, human; details: 2.5 μM, 24 hours
Procedure: Cells were harvested by applying trypsin-EDTA then washed twice with phosphate-buffered saline (PBS) solution, fixed with 70% ethanol for 15 minutes at room temperature and kept at −20° C. overnight. Fixed samples were washed twice with PBS and stained with Hoechst 33258 (Invitrogen, Carlsbad, CA) at the final concentration of 1 μg/ml in the 0.1% Triton X-100/PBS for 20 minutes at room temperature. DNA content was analyzed by flow cytometer for 10,000 cells per sample, singlets population was selected for further analysis and cell cycle was assigned by fitting the DNA content into Dean-Jett-Fox model using FlowJo software.

[3] = system: MDA-MB-468 cells; assay: Annexin-V apoptosis assay, MDA-MB-468 cells; type: cell-based, human; details: alone
Procedure: FIGS. 72A-72C presents the characterization of combinations on TNBC cell viability and cell death. Quantitation of Annexin-V staining of MDA-MB-468 cells treated with either 10 μM evoxine, 10 μM citropten, 0.25 μM 11-Cl-BBQ, or corresponding combinations for 72 hours (A and B, respectively). Quantifications represent averages of three independent experiments. C) Colony forming assay of MDA-MB-468 AhR-expressing and AhR KO cells treated with 100 nM Evoxine, 500 nM Citropten, […] 11-Cl-BBQ, or combinations of each compound with 11-Cl-BBQ.
Annexin-V staining was performed 48 hours post-treatment by harvesting cells (floating and attached) with trypsin, followed by addition of serum-containing media, and two washes with ice-cold PBS. Cells were stained with Annexin-V-PerCP conjugates (eBioscience, Waltham, MA, USA) for 15 minutes on ice before washing out residual stain and resuspending in 300 μL of binding buffer. 10,000 events were collected per sample. Data was acquired with a CytoFLEX S flow cytometer (Beckman Coulter, Brea, CA), and analyzed using the CytExpert software (Beckman Coulter).

[4] = Dose studies in mice, serum concentration; type: in vivo, mouse
[5] = system: H460 cells; assay: Senescence-associated beta-galactosidase staining, H460 cells; type: cell-based, human
Procedure: H460 cells were seeded at 2×10^5 cells/well in 6-well plate overnight and treated with indicated compounds for 5 days. Media and treatments were refreshed on the […]. Cells were stained for senescence-associated β-galactosidase (SA-βgal) using 5-dodecanoylaminofluorescein di-β-D-galactopyranoside (C12FDG). Briefly, media were aspirated and replaced with fresh media containing 0.1 μM bafilomycin A1 (Calbiochem) and incubated for 1 hour in cell culture incubator. C12FDG (Setare Biotech) was added with a final concentration of 33 μM and incubated for another hour. Fluorescent signal was recorded using CytoFlex S cytometer for 10,000 cells per sample.

[6] = system: cancer cell line; assay: Cell viability of combinations of AhR ligand and synergizer (FIGS. 51, 52); type: cell-based; details: for cell viability, monotreatments: alone (FIG. 51); for cell viability, mono-applications: alone (FIG. 52)
Procedure: FIG. 51 provides data from cancer cell line trials using 11-Cl-BBQ alone, Evoxine alone, Citropten alone, and combinations comprising 11-Cl-BBQ and Citropten and 11-Cl-BBQ and Evoxine. […] The decrease in cell viability was more than additive. Specifically, for Evoxine in combination with Analog 523, the reduction in cell viability was: 31% at 1 μM; 41% at 3 μM; and 42% at 10 μM. For Citropten in combination with Analog 523, the reduction in cell viability was: 16% at 1 μM; 34% at 3 μM; and 43% at 10

[7] = system: H460 cells; assay: Colony forming assay, H460 cells; type: cell-based, human; details: 0.1-10 µM, 14 days
Procedure: H460 cells were seeded in 6-well plates at a density of 200 cell per well in complete growth media. 11-Cl-BBQ or DMSO were added the following day as indicated concentrations for two weeks in 1% FBS RMPI media, media and treatments were replenished twice a week. Cell colonies were fixed and stained with methylene blue in 50% ethanol solution overnight. Pictures of cell colonies were captured using the ChemiDoc imaging instrument, and quantified using OpenCFU software.

[8] = system: p53; assay: Western blot of p53 protein levels in H460 cells; type: cell-based, human
Procedure: Whole cell lysate was prepared in RIPA lysis buffer with 1× Laemmli buffer, then denatured by heating at 100° C. for 5 minutes. Denatured proteins were separated in SDS-PAGE gel and transferred onto PVDF membrane. The PVDF membrane was incubated in TBST with 5% nonfat dry milk for one hour at room temperature prior to incubating with primary antibody of interest overnight at 4° C. with gentle rotation. Appropriate horse radish peroxidase conjugated secondary antibody was applied for one hour at room temperature. Signal was developed by applying SuperSignal West Pico chemiluminescence substrate and captured using the ChemiDoc imaging instrument. Primary antibodies used in this study: anti-AHR antibody (BML-SA210-Enzo Biochem, Farmingdale, NY), anti-p27^Kip1 antibody (610242-BD Biosciences), anti-p53 antibody (DO-1 sc-126-Santa Cruz Biotechnology, Dallas, TX), anti-p21 antibody (2947S-Cell Signaling Technology, Danvers, MA), and anti-GAPDH antibody (sc-36502, Santa Cruz).

[9] = system: H460 cells; assay: Zebrafish tumor xenograft assay with pre-treated H460 cells; type: in vivo; details: cells exposed to 1 μM or 5 μM for 72 hours, washed out; days 1 and 4 post-injection; AhR-expressing cells
Procedure: H460 AHR wildtype (CR-V2) and knockout (CR-AHR3) cells were treated with 11-Cl-BBQ (1 and 5 μM) or 0.1% DMSO as vehicle control for 72 hours in RPMI media supplemented with 1% FBS. Cells were trypsinized, dyed with cell viable dye CM-Di1 (Thermofisher), and micro-injected into zebrafish embryos. The growth cancer xenografts were monitored at one day and four days post injection. Zebrafish were housed at the Sinnhuber Aquatic Research Laboratory at Oregon State University (Corvallis, OR, USA), and experiments were conducted according to Institutional Animal Care and Use Committee protocols.

[10] = system: lung cancer cells; assay: Viability of lung cancer cell lines (CellTiter Glo); type: cell-based, human; details: 10 nM to 10 μM, 72 hours
Procedure: Cancer cells were seeded in 96-well plates at a density of 3,000 cells per well in their optimal culture medium supplemented with 1% FBS overnight, then compounds were added at indicated concentrations and incubated for 72 hours; otherwise, different treatment times will be specified. Cell viability was measured using the ATP-based CellTiter Glo assay (Promega-Madison, WI) following the manufacturer's protocol. Luminescent signals were recorded using the Tropix TR717 microplate luminometer. The viability of cultures following each treatment was normalized to vehicle treatment (0.1% DMSO (v/v)).

[11] = system: HepG2 cells; assay: Colony forming assay, HepG2 cells; type: cell-based, human; details: alone
Procedure: FIGS. 75A-75C compare the effects of 11-Cl-BBQ and Evoxine in hepatoma: A) Mouse Hepa-1 cells were treated with 11-Cl-BBQ, Evoxine either alone or in combination for 48 hours before assessing cell viability using Cell-Titer Glo Viability Assay. B) Hepa-1 cells treated with Evoxine, 11-Cl-BBQ either alone or in combination for 48 hours with induction of cell death measured by Annexin-V staining and detection by flow cytometry. C) Colony forming assay of HepG2 human hepatocellular carcinoma cells seeded at 300 cell/well in a 24-well plate before treatment with 11-Cl-BBQ, Evoxine either alone or in combination at the indicated concentrations for two weeks, followed by fixation and staining with methylene blue. Quantitation of colonies is shown on the right.
Cells were seeded at a density of 500 cell/well in triplicate in 6-well plates, and the following day, cells were treated with compounds and allowed to incubate for 2-3 weeks before fixation with 50% ethanol/water solution containing 0.1% methylene blue overnight. Colonies were counted manually, or with OpenCFU colony counting software, Images were acquired on a ChemiDoc imaging instrument.

[12] = system: AhR; assay: Xenobiotic response element (XRE) driven reporter in Hepa-1 cells, AhR activation; type: cell-based, mouse
Procedure: FIGS. 69A-69D show representative 11-Cl-BBQ analogs (848 and 849) as non-classical AHR ligands. (A) Stability of AHR protein in the H460 whole cell lysate in the presence or absence of 11-Cl-BBQ (5 μM), PRXS-848 (10 μM), and PRXS-849 (10 μM) at the indicated temperatures; GADPH was used as a loading control. (B) Localization of AHR protein in the H460 treated with 11-Cl-BBQ (100 nM), PRXS-848 (250 nM), PRXS-849 (250 nM), or vehicle control (0.1% DMSO) for two hours; top horizontal panel: AHR protein staining using an AHR-specific antibody conjugated with FITC (green) fluorophore; middle panel: DAPI staining; bottle panel: overlaid images from the top panel and the middle panel in the same column. (C) AHR activation (measured by XRE-luciferase reporter assay in Hepa1 cells) of the parental lead 11-Cl-BBQ and analogs PRXS-848 and PRXS-849 at the indicated concentrations for 16 hours. (D) AHR activation of 11-Cl-BBQ cotreated with a known AHR antagonist CH223191 (1 μM) or 11-Cl-BBQ analogs PRXS-848 and PRXS-849 at the indicated concentrations for 16 hours.
FIG. 76 presents representative AhR compounds (BBQ analogs) of the invention effective for activation of AhR transcription. Activation values greater than 1 at 100 nM were considered a hit with nanomolar affinity to promote AhR activity and synergize with the identified compounds from the synergy screens. Referring to FIG. 76, Fold@ 1 nM refers to activation of AhR transcription at 1 nM; Fold@100 nM refers to activation of AbR transcription at 100 nM; and Fold rel @ 100 refers to relative activation at 100 nM compared to parental compound, 11-Cl-BBQ. The representative AhR ligand compounds presented in FIG. 76 activate AhR transcription and therefore are useful as anti-cancer agents, either alone or in combination with the synergizing compounds (and chemotherapeutic agents) described herein.
was identified as a top hit compound based on its potent (>50% inhibition at 0.1 μM), and selective activity against AhR WT cells versus AhR KO cells (>70% difference between WT and KO cells at 10 μM) (FIG. 11). […] This confirmed Analog 523 activates AhR-mediated transcription and functions as an AhR ligand.

O=c1c2cccc3cccc(c32)c2nc3cc(Cl)ccc3n12 [Analog 11-Cl-BBQ]
Annexin V staining (cell death) [1]: negative for Annexin V staining | cells in S-phase ([2]; vehicle 35%): 15% | cells in G1 phase ([2]; vehicle 45%): > 70% | apoptotic response (Annexin-V staining) ([3]; 0.25 μM): 7.3% | concentration detected in mouse serum ([4]; 2 mg/Kg intravenous administration): up to 1.6 μM | concentration detected in mouse serum ([4]; 8 mg/Kg oral administration): 3000 nM | SA-β-gal expression ([5]; 2.5 μM for 120 h, AhR-dependent): significant increase in SA-β-gal expression | cell viability, monotreatments [6]: little effect | colony formation of AhR-expressing H460 cells [7]: strongly inhibited colony formation | p53 protein levels ([8]; 5 μM, from 4 h, further at 6 and 9 h): increased p53 protein levels | growth of cancer cell xenografts [9]: significantly lower growth | growth of lung cancer cells [10]: decreased the growth of lung cancer cells in a dose-dependent manner | HepG2 colony formation ([11]; 10 μM): little effect on colony formation inhibition

COc1cc(OC)c2ccc(=O)oc2c1 [Citropten, citropten]
apoptotic response (Annexin-V staining) ([3]; 10 μM): 2.7% | cell viability, monotreatments [6]: little effect | cell viability, mono-applications [6]: largely ineffective in reducing cell viability

COc1c2ccoc2nc2c(OC)c(OC[C@@H](O)C(C)(C)O)ccc12 [Evoxine]
apoptotic response (Annexin-V staining) ([3]; 10 μM): 0.5% | cell viability, monotreatments [6]: little effect | cell viability, mono-applications [6]: largely ineffective in reducing cell viability | HepG2 colony formation ([11]; 2.5 μM): little effect on colony formation inhibition

COC(=O)c1ccc2c(c1)nc(-c1cccc3ccccc13)n2C(=O)c1ccc(F)c(F)c1 [PRXS-848]
activation of AhR transcription (FIG. 76) [12]: did not activate AhR

COC(=O)c1ccc2nc(-c3cccc4ccccc34)n(C(=O)c3ccc(F)c(F)c3)c2c1 [PRXS-849]
activation of AhR transcription (FIG. 76) [12]: did not activate AhR

Clc1cc2c(cc1Cl)Oc1cc(Cl)c(Cl)cc1O2 [TCDD, reference compound]
expression of p53 protein ([8]; TCDD 30 nM): not altered

COc1cccc2c1C(=O)c1c(O)c3c(c(O)c1C2=O)C[C@@](O)(C(=O)CO)C[C@@H]3O[C@H]1C[C@H](N)[C@H](O)[C@H](C)O1 [doxorubicin, reference compound]
SA-β-gal expression ([5]; Dox 50 nM, 5 days): induced SA-β-gal expression independent of the AhR status
